In PMC11335189, “Revealing molecular determinants governing mambalgin-3 pharmacology at acid-sensing ion channel 1 variants” (Cellular and Molecular Life Sciences: CMLS, 2024):
Positions of bridges follow the written chain, without caps; N, C: chain ends. No end group written: not given here.

Assays:
hASIC1a = target: T1, hASIC1a (Homo sapiens, UniProt P78348); test: TEVC in Xenopus laevis oocytes expressing hASIC1a; assay type: cell-based; conditions: for loss of potency relative to wild-type Ma-3: conditioning pH 7.45, stimulating pH 6
T1 construct: expressed in transfected cells; host or cells: Xenopus laevis oocytes (cRNA injection)
T1 sequence (P78348 1-528): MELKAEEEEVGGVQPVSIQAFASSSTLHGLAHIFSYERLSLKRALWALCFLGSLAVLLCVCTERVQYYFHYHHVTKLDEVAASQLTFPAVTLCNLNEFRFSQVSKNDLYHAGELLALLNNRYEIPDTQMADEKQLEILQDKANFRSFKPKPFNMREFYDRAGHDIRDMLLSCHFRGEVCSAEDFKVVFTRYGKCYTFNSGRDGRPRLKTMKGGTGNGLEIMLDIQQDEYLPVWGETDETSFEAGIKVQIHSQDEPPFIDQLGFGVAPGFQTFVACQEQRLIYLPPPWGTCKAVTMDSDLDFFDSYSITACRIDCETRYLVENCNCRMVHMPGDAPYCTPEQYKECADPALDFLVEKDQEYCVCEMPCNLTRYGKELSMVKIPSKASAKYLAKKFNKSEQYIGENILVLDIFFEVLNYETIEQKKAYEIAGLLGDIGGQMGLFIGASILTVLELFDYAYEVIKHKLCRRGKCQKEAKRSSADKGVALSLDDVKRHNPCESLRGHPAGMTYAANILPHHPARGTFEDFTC
Method: Two-electrode voltage-clamp (TEVC) experiments using Xenopus laevis oocytes were conducted as previously described. Briefly, oocytes were surgically removed from anaesthetised female frogs, then treated with collagenase (~ 1 mg/ml, Sigma type I) for 2 h under agitation at room temperature. cRNAs were synthesised using a mMessage mMachine T7 or SP6 transcription kit (Thermo Fisher Scientific Australia Pty Ltd, Scoresby, VIC, Australia) and injected into healthy stage V–VI oocytes at 0.2–20 ng per cell. Different amounts of RNA were used for different wild-type and mutant constructs, as well as to titrate expression levels to record over multiple days and maintaining consistent expression levels. Injected oocytes were incubated at 17 °C for 1–7 days in 50% Leibovitz’s L-15 medium (Gibco, Thermo Fisher Scientific Australia Pty Ltd, Scoresby, VIC, Australia), supplemented with 25 µg/mL gentamicin, 25 µg/mL streptomycin, and 2.5% fetal horse serum. Membrane currents were recorded 2–7 days after cRNA-injection under voltage-clamp at -60 mV (Axon Axoclamp 900 A, Molecular Devices, CA, USA) using two standard glass microelectrodes of 0.5–1 MΩ resistance when filled with 3 M KCl solution. Data were sampled at 2 kHz and filtered at 0.1 kHz using Clampex 10 software (Molecular Devices, CA, USA). […]
Specific to this work, the standard protocol was for oocytes to be conditioned at pH 7.45 and channels stimulated every 60 s using a 5 s pH 5 or 6 application, unless stated otherwise. […] Activation curves were determined by conditioning oocytes at pH 8 (Fig. 2e − g; and Fig. 5a and b) or 7.45 (Fig. 6; and Supplementary Fig. 2d and c) for 55 s and applying low pH stimuli from 7.25 to 5.0 for 5 s. Steady-state desensitisation (SSD) was determined by applying conditioning solutions of pH values from 8 to 6 for 115 s prior to stimulation by a pH drop to 5 for 5 s. […] Control pH-dependence curves were determined in the absence of any Ma-3. […]
Data were analysed using pCLAMP-Clampfit software (Version 11, Molecular Devices, CA, USA) and GraphPad Prism 9.5 and 10.2.2 (GraphPad Software, San Diego, CA, USA). […]

rASIC1a = target: T2, rASIC1a (Rattus norvegicus, UniProt P55926); test: TEVC in Xenopus laevis oocytes expressing rASIC1a; assay type: cell-based; conditions: for inhibition of currents at 300 nM: 300 nM peptide; for increase in IC50 (loss of potency) relative to wild-type Ma-3: peptides applied at pH 7.45, stimulated at pH 6
T2 construct: expressed in transfected cells; host or cells: Xenopus laevis oocytes (cRNA injection)
T2 sequence (P55926 1-526): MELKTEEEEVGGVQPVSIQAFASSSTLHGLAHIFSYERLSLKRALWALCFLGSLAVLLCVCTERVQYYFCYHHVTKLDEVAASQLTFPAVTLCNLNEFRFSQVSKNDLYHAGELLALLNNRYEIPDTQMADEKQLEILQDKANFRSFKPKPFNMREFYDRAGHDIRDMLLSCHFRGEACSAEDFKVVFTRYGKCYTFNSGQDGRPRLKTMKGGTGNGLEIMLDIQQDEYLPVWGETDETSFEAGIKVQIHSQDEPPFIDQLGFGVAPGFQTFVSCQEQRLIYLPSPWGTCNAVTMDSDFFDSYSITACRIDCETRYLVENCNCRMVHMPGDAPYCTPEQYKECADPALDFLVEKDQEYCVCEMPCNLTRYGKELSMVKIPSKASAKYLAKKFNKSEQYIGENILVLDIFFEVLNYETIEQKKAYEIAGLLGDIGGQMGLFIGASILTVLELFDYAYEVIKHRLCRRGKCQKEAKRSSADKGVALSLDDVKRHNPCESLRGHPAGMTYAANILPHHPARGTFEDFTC
Method: Two-electrode voltage-clamp (TEVC) experiments using Xenopus laevis oocytes were conducted as previously described. Briefly, oocytes were surgically removed from anaesthetised female frogs, then treated with collagenase (~ 1 mg/ml, Sigma type I) for 2 h under agitation at room temperature. cRNAs were synthesised using a mMessage mMachine T7 or SP6 transcription kit (Thermo Fisher Scientific Australia Pty Ltd, Scoresby, VIC, Australia) and injected into healthy stage V–VI oocytes at 0.2–20 ng per cell. Different amounts of RNA were used for different wild-type and mutant constructs, as well as to titrate expression levels to record over multiple days and maintaining consistent expression levels. Injected oocytes were incubated at 17 °C for 1–7 days in 50% Leibovitz’s L-15 medium (Gibco, Thermo Fisher Scientific Australia Pty Ltd, Scoresby, VIC, Australia), supplemented with 25 µg/mL gentamicin, 25 µg/mL streptomycin, and 2.5% fetal horse serum. Membrane currents were recorded 2–7 days after cRNA-injection under voltage-clamp at -60 mV (Axon Axoclamp 900 A, Molecular Devices, CA, USA) using two standard glass microelectrodes of 0.5–1 MΩ resistance when filled with 3 M KCl solution. Data were sampled at 2 kHz and filtered at 0.1 kHz using Clampex 10 software (Molecular Devices, CA, USA). A microperfusion system was used to allow fast extracellular solution exchange (bath volume = ~ 30 µL). All experiments were performed at room temperature (18–23 °C) in ND96 (96 mM NaCl, 2 mM KCl, 1.8 mM CaCl2, 2 mM MgCl2, 5 mM HEPES, pH 7.45). In solutions below pH 6.8, HEPES was replaced by MES. All solutions containing peptides contained 0.05% fatty acid free bovine serum albumin to decrease adsorptive losses of peptide to plasticware. For all channels tested, control current magnitudes between 500 and 9000 nA when tested using a conditioning pH of 7.45 and stimulating pH of 6 (except for the chimeras that were stimulated with pH 5) were used for data collection. Before recording any experiments, oocytes were stimulated multiple times with low pH to minimise and stabilise tachyphylaxis/desensitisation, which were then accounted for during analysis. Complete recovery of currents from Ma-3 induced modulation within 3 min of washout at all channels tested allowed for correction for tachyphylaxis/desensitisation during analyses.
Specific to this work, the standard protocol was for oocytes to be conditioned at pH 7.45 and channels stimulated every 60 s using a 5 s pH 5 or 6 application, unless stated otherwise. For all concentration-response data, peptides were applied for ~ 50 s between each low pH stimulus application. Activation curves were determined by conditioning oocytes at pH 8 (Fig. 2e − g; and Fig. 5a and b) or 7.45 (Fig. 6; and Supplementary Fig. 2d and c) for 55 s and applying low pH stimuli from 7.25 to 5.0 for 5 s. Steady-state desensitisation (SSD) was determined by applying conditioning solutions of pH values from 8 to 6 for 115 s prior to stimulation by a pH drop to 5 for 5 s. Ma-3 was only applied in the conditioning solution for activation and steady-state desensitisation curves in the presence of peptide. Control pH-dependence curves were determined in the absence of any Ma-3. When assessing the effect of Ma-3 on the rASIC1a: ASIC1b chimeras (C92 and C166; and for the comparative wild-type data), the conditioning pH was 7.45 and stimulating pH 5 (Fig. 3b). Specific details of the conditioning and stimulating pH are noted in each figure legend.
Data were analysed using pCLAMP-Clampfit software (Version 11, Molecular Devices, CA, USA) and GraphPad Prism 9.5 and 10.2.2 (GraphPad Software, San Diego, CA, USA). To obtain the Hill coefficient (nH) and half-maximal response (EC50, IC50, or pH50) the Hill equation was fitted to normalised concentration-response curves by using a non-linear fit to the data of a four-parameter logistic equation (“sigmoidal dose-response” in GraphPad Prism 9.5). […]

[1] = conditioning pH 7.45, stimulating pH 6

Row | Substance | loss of potency relative to wild-type Ma-3 (hASIC1a) | inhibition of currents at 300 nM (rASIC1a; [1]) | increase in IC50 (loss of potency) relative to wild-type Ma-3 (rASIC1a) | pH50 of activation in presence of Ma-3 (hASIC1a; 100 nM Ma-3 in the pH 8 conditioning solution, Hill fit, n = 5–6) | t1/2 of onset of inhibition (rASIC1a; 30 nM Ma-3 (~ 10 times the IC50) applied at pH 7.45 for different durations, single exponential fit, n = 6) | time of Ma-3 application to maximal inhibition (rASIC1a; 30 nM Ma-3 at pH 7.45) | shift of the activation curve towards more acidic values (rASIC1a; 100 nM Ma-3, conditioning pH 8) | slope of activation curve in presence of Ma-3 (rASIC1a; 100 nM Ma-3, conditioning pH 8, mean ± SEM) | alkaline shift in the SSD curve (rASIC1a; 100 nM Ma-3, stimulating pH 5) | slope of SSD curve in presence of Ma-3 (rASIC1a; 100 nM Ma-3, stimulating pH 5, mean ± SEM) | pH50 of activation in presence of Ma-3 (rASIC1a; 100 nM Ma-3 in conditioning solution, conditioning pH 8, Hill fit, mean ± SEM, n = 5–8) | pH50 of steady-state desensitisation (SSD) in presence of Ma-3 (rASIC1a; 100 nM Ma-3 in conditioning solution, stimulating pH 5, Hill fit, mean ± SEM, n = 5–8) | pH50 of activation in presence of Ma-3 (rASIC1a; 100 nM Ma-3 in the pH 8 conditioning solution, Hill fit (Supplementary Table 7), n = 5–6) | fold more potent inhibition of rASIC1a than rASIC1b (rASIC1a; IC50 ratio, conditioning pH 7.45, stimulating pH 6) | t1/2 of recovery of currents from inhibition (washout) (rASIC1a; after 30 nM Ma-3, pH 7.45 conditioning, single exponential fit, n = 6) | inhibition at saturating Ma-3 concentrations (rASIC1a; [1])
1 | H-SLKCYQHGAVVTCHRDMKFCYHNIGMPFRNLKLILQGCSSSCSETENNKCCSTDRCNK (disulfide 4-20, 13-38, 42-50, 51-56 (inferred)) [K8A] | ~ 4 fold | strongly inhibit | ~ 4 fold | – | – | – | – | – | – | – | – | – | – | – | – | –
2 | H-SLKCYQHGKVVTCHRDAKFCYHNIGMPFRNLKLILQGCSSSCSETENNKCCSTDRCNK (disulfide 4-20, 13-38, 42-50, 51-56 (inferred)) [M16A] | no change | strongly inhibit | no change | – | – | – | – | – | – | – | – | – | – | – | – | –
3 | H-SLKCYQHGKVVTCHRDMKFCYHNIGMPFRNLKLILQGCSSSCSETENNKCCSTDRCNK (disulfide 4-20, 13-38, 42-50, 51-56 (inferred)) [Ma-3, mambalgin-3] | – | strongly inhibit | – | 5.86 | 6.5 s | ≤ 45 s | 0.48 pH units | 1.29 ± 0.67 | 0.08 pH units | 7.09 ± 1.34 | 5.72 ± 0.23 | 7.42 ± 0.04 | 5.60 | ~ 10 fold | 21.6 s | completely inhibited
